Assay [1] deals with approximately 60 human tumour cell lines. Put plainly: NCI 60 cell screen, SRB assay. The class given is cell-based. Particulars: Homo sapiens, 48 hour continuous exposure. The protocol:
The National Cancer Institute (NCI), Bethesda, Md., USA has available an in vitro cytotoxicity screen which consists of approximately 60 human tumour cell lines against which compounds are tested at a minimum of five concentrations each differing 10-fold. A 48 hour continuous exposure protocol is used, where cell viability or growth is estimated with an SRB protein assay.
The test compounds were evaluated against approximately 60 human tumour cell lines. The NCI screening procedures were described in detail by Monks and co-workers (Monks, A et al., Journal of the National Cancer Institute, 1991, 83, 757). Briefly, cell suspensions were diluted according to the particular cell type and the expected target cell density (5000-40,000 cells per well based on cell growth characteristics), and added by pipette (100 μL) into 96-well microtitre plates. The cells were allowed a preincubation period of 24 hours at 37° C. for stabilisation. Dilutions at twice the intended test concentration were added at time zero in 100 μL aliquots to the wells. The test compounds were evaluated at five 10-fold dilutions (10^−4, 10^−5, 10^−6, 10^−7 and 10^−[…]). The test compounds were incubated for 48 hours in 5% CO2 atmosphere and 100% humidity. The cells were then assayed using the sulphorhodamine B assay. A plate reader was used to read the optical densities and a microcomputer processed the readings into GI50 values (in Moles), which is the dosage required to limit cell growth to 50%.

Another assay has as its system linear pBR322 DNA. Put plainly: DNA cross-linking, electrophoretic assay (XL50). Type of assay: biochemical. Particulars: concentration giving 50% cross-linked plasmid DNA; 2 hours, 37° C., pH 7.2. The protocol:
The extent of DNA cross-linking induced by each PBD dimer was determined using the electrophoretic assay method of Hartley, et al. (Hartley, J. A., Berardini, M. D., and Souhami, R. L. (1991) Anal. Biochem. 193, 131-134) based on the principle that, following complete denaturation of linear pBR322 DNA (˜4,300 bp) to the single-stranded (SS) form, an interstrand cross-link results in renaturation to double-stranded (DS) in a neutral gel.
Closed-circular DNA was linearized with HindIII, then dephosphorylated and finally 5′-singly end-labelled using [γ^32P]-ATP and polynucleotide kinase. Reactions containing 30-40 ng of DNA and the test compound were carried out in aqueous TEOA (25 mM triethanolamine, 1 mM EDTA, pH 7.2) buffer at 37° C. in a final volume of 50 μl for 2 hours. Reactions were terminated by addition of an equal volume of stop solution (0.6 M NaOAc, 20 mM EDTA, 100 μg/ml tRNA) followed by precipitation with ethanol. Following centrifugation, the supernatant was discarded and the pellet dried by lyophilization. Samples were re-suspended in 10 μl of strand separation buffer (30% DMSO, 1 mM EDTA, 0.04% bromophenol blue and 0.04% xylene cylanol) and denatured by heating to 90° C. for 2.5 min, followed by immersion in an ice/water bath. Control non-denatured samples were re-suspended in 10 μl of non-denaturing buffer solution (0.6% sucrose, 0.04% bromophenol blue in aqueous TAE buffer [40 mM Tris, 20 mM acetic acid, 2 mM EDTA, pH 8.1]) and loaded directly onto the gel for comparison.
Electrophoresis was carried out for 14-16 h at 40 V using a 0.8% submerged agarose gel (20×25×0.5 cm) in TAE buffer. Gels were dried under vacuum for 2 hour at 80° C. onto one layer each of Whatman 3MM and DE8I filter papers using a BioRad 583 gel dryer. Autoradiographs were obtained after exposure of Hyperfilm-MP film (Amersham plc, U.K.) to the dried gel for either 4 hour with a screen (or over night, without a screen, to obtain a sharper image). Film bands were quantitated using a BioRad GS-670 imaging laser densitometer. Percentage cross-linking was calculated by measuring the total DNA in each lane (summed density for the double-stranded [DS] and single-stranded [SS] bands) relative to the amount of cross-linked DNA (density of DS band alone). A dose-response curve was derived by plotting drug concentration against the determined percentage level of cross-linked DNA which was then analysed to determine the concentration of test compound that results in 50% cross-linked plasmid DNA (XL50).

In assay [2] the test system is K562 human chronic myeloid leukaemia cells. Put plainly: In vitro cytotoxicity, K562 cells, MTT assay. Type of assay: cell-based. Particulars: Homo sapiens. How it is done: K562 human chronic myeloid leukaemia cells were maintained in RPM1 1640 medium supplemented with 10% fetal calf serum and 2 mM glutamine at 37° C. in a humidified atmosphere containing 5% CO2 and were incubated with a specified dose of drug for 1 hour or 96 hours at 37° C. in the dark. The incubation was terminated by centrifugation (5 min, 300 g) and the cells were washed once with drug-free medium. Following the appropriate drug treatment, the cells were transferred to 96-well microtiter plates (10^4 cells per well, 8 wells per sample). Plates were then kept in the dark at 37° C. in a humidified atmosphere containing 5% CO2. The assay is based on the ability of viable cells to reduce a yellow soluble tetrazolium salt, 3-(4,5-dimethylthiazol-2-yl)-2,5-diphenyl-2H-tetrazolium bromide (MTT, Aldrich-Sigma), to an insoluble purple formazan precipitate. Following incubation of the plates for 4 days (to allow control cells to increase in number by approximately 10 fold), 20 μL of MTT solution (5 mg/mL in phosphate-buffered saline) was added to each well and the plates further incubated for 5 hours. The plates were then centrifuged for 5 minutes at 300 g and the bulk of the medium pipetted from the cell pellet leaving 10-20 μL per well. DMSO (200 μL) was added to each well and the samples agitated to ensure complete mixing. The optical density was then read at a wavelength of 550 nm on a Titertek Multiscan ELISA plate reader, and a dose-response curve was constructed. For each curve, an IC50 value was read as the dose required to reduce the final optical density to 50% of the control value.
A general note: Tetrazolium assays rely on reduction of a dye to a coloured formazan, in cell work by metabolically active cells.

Where [3] appears, read: 96 hr exposure, sub-table of 16e-j, read-out: IC50 96 hr exposure.
The mark [4] stands for this setting: 1 hr exposure, read-out: IC50 1 hr exposure.

Read-outs that look alike come from different tables or passages of the source.

For orientation: GI50 means the concentration that inhibits growth by half. By EC50 is commonly meant the concentration needed to bring the measured effect to its halfway point. Read a high EC50 as a need for much substance. For orientation: IC50 means the concentration at which inhibition is half-maximal.

On to `COc1ccc2c(c1)C(=O)N1CCC(OCCCCCCCCOC3CCN4C(=O)c5cc(OC)ccc5N=C[C@@H]34)[C@@H]1C=N2` (stereo partly drawn) [Compound 16f, 1,1′-[(Octane-1,8-diyl)dioxy]bis[(11aS)-7-methoxy-1,2,3,11a-tetrahydro-5H-pyrrolo[2,1-c][1,4]benzodiazepine-5-one]], for which, in assay [1], the concentration for 50% growth inhibition (GI50) came to 19 nM. Also, a half-maximal effect in the assay on linear pBR322 DNA (EC50) was put at 1400 nM. In addition, the IC50 in assay [2] (setting [3]) came out at 4.5 nM.

Compound `COc1ccc2c(c1)C(=O)N1CCC(OCCCCCCCCCOC3CCN4C(=O)c5cc(OC)ccc5N=C[C@@H]34)[C@@H]1C=N2` (stereo partly drawn) [Compound 16g, 1,1′-[(Nonane-1,9-diyl)dioxy]bis[(11aS)-7-methoxy-1,2,3,11a-tetrahydro-5H-pyrrolo[2,1-c][1,4]benzodiazepine-5-one]] returned a GI50 in assay [1] of 19 nM. Besides, the EC50 with linear pBR322 DNA was found to be 1500 nM. Moreover, the IC50 in assay [2] (setting [3]) is 26 nM.

For `COc1ccc2c(c1)C(=O)N1CCC(OCCCCCOC3CCN4C(=O)c5cc(OC)ccc5N=C[C@@H]34)[C@@H]1C=N2` (stereo partly drawn) [Compound 16c, 1,1′-[(Pentane-1,5-diyl)dioxy]bis[(11aS)-7-methoxy-1,2,3,11a-tetrahydro-5H-pyrrolo[2,1-c][1,4]benzodiazepine-5-one]], halving of growth in assay [1] (GI50) required 15 nM. In addition, a half-maximal effect in the assay with linear pBR322 DNA (EC50) was put at 70 nM. For the same compound, the IC50 in assay [2] (setting [4]) amounted to 500 nM.

With `COc1ccc2c(c1)C(=O)N1CCC(OCCCCCCOC3CCN4C(=O)c5cc(OC)ccc5N=C[C@@H]34)[C@@H]1C=N2` (stereo partly drawn) [Compound 16d, 1,1′-[(Hexane-1,6-diyl)dioxy]bis[(11aS)-7-methoxy-1,2,3,11a-tetrahydro-5H-pyrrolo[2,1-c][1,4]benzodiazepine-5-one]], the GI50 in assay [1] amounted to 310 nM. In the assay with linear pBR322 DNA, this compound registered a concentration giving a half-maximal response (EC50) of 750 nM. Further, the IC50 in assay [2] (setting [4]) was 1000 nM.

In the case of `COc1ccc2c(c1)N=C[C@H]1C(OCCCCCCCOC3CCN4C(=O)c5ccc(OC)cc5N=C[C@@H]34)CCN1C2=O` (stereo partly drawn) [Compound 9e, 1,1′-[(Heptane-1,7-diyl)dioxy]bis[(11aS)-8-methoxy-1,2,3,11a-tetrahydro-5H-pyrrolo[2,1-c][1,4]benzodiazepine-5-one]], in assay [1], the GI50 is 2690 nM. Further, in the assay with linear pBR322 DNA, the concentration for a half-maximal effect (EC50) amounted to 20000 nM. The IC50 in assay [2] (setting [4]) is more than 30000 nM.

Turning to `COc1ccc2c(c1)N=C[C@H]1C(OCCCCCCCCCCCOC3CCN4C(=O)c5ccc(OC)cc5N=C[C@@H]34)CCN1C2=O` (stereo partly drawn) [Compound 9i, 1,1′-[(Undecane-1,11-diyl)dioxy]bis[(11aS)-8-methoxy-1,2,3,11a-tetrahydro-5H-pyrrolo[2,1-c][1,4]benzodiazepine-5-one]], the GI50 in assay [1] is 570 nM. In the assay on linear pBR322 DNA, this compound showed an EC50 of 190 nM. Moreover, the IC50 in assay [2] (setting [4]) was determined as 9000 nM.

For the compound `COc1ccc2c(c1)N=C[C@H]1C(OCCCCCCCCCOC3CCN4C(=O)c5ccc(OC)cc5N=C[C@@H]34)CCN1C2=O` (stereo partly drawn) [Compound 9g, 1,1′-[(Nonane-1,9-diyl)dioxy]bis[(11aS)-8-methoxy-1,2,3,11a-tetrahydro-5H-pyrrolo[2,1-c][1,4]benzodiazepine-5-one]], the GI50 in assay [1] is 570 nM. This compound showed an EC50 in the assay with linear pBR322 DNA of 980 nM. Moreover, the IC50 in assay [2] (setting [4]) was 17300 nM.

For the compound `COc1ccc2c(c1)C(=O)N1CCC(OCCCOC3CCN4C(=O)c5cc(OC)ccc5N=C[C@@H]34)[C@@H]1C=N2` (stereo partly drawn) [Compound 16a, 1,1′-[(Propane-1,3-diyl)dioxy]bis[(11aS)-7-methoxy-1,2,3,11a-tetrahydro-5H-pyrrolo[2,1-c][1,4]benzodiazepine-5-one]], the GI50 in assay [1] worked out at 3160 nM. In the assay on linear pBR322 DNA, this compound yielded an EC50 of 50 nM. For the same compound, in assay [2] (setting [4]), the IC50 worked out at 12800 nM.

The values are drawn from patent publication US7557099B2, “Pyrrolobenzodiazepines as key intermediates in the synthesis of dimeric cytotoxic pyrrolobenzodiazepines” (Spirogen Limited, priority 2004, dated 2009).
